Experiment [1] concerns the target Neurotensin receptor type 1 (Homo sapiens, UniProt P30989). The experiment is classed as functional.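 Also: Image-based confirmatory dose-response assay measuring agonist activity at NTR1; NTR1-expressing U2OS osteosarcoma cells imaged for beta-arrestin GFP spot formation; agonist potency where compounds increase beta-arrestin recruitment.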
Experiment [2] has as its target T1, Ubiquitin-conjugating enzyme E2 N (Homo sapiens, UniProt P61088).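 Also: Dose-response confirmation in a TR-FRET assay detecting UBC13-driven polyubiquitin chain formation, inhibition measured.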
T1 sequence (P61088 whole entry): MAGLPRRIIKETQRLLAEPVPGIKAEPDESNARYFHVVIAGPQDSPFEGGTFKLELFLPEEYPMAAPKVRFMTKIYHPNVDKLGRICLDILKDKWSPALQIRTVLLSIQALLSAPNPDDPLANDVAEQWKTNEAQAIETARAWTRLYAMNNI
In kind it is functional.

A short description of experiment [3]: Cytotoxicity screening for potential Inhibitors of Bacterial Capsule Biogenesis. [Related pubchem assays (depositor defined):AID488970]. The experiment is classed as functional.
Experiment [4] deals with Vibrio harveyi. Put plainly: Quorum Sensing, LuxS, LuxPQ Measured in Microorganism System Using Plate Reader - 2035-01_Inhibitor_DoseNoFile_DryPowder_Activity. [Related pubchem assays (depositor defined):AID2106]. In kind it is functional, organism-based.
Experiment [5] has as its system Vibrio harveyi. Put plainly: inhibitors of AI-2 quorum sensing in V. harveyi, dose response, LuxS, LuxPQ, dry powder, set 2 (AID 493072). In kind it is functional, organism-based.
The subject of experiment [6] is Vero. Kind of experiment: cytotoxicity of synthesized analogs in Vero 76, SAR follow-up, cytotoxicity control for West Nile virus antiviral project, Vero 76 cells (AID 2414). The experiment is classed as functional. The settings on record: Chlorocebus sabaeus.
Experiment [7] has as its system Vero. Kind of experiment: cytotoxicity of synthesized analogs in Vero cells, SAR follow-up, cytotoxicity control for West Nile virus antiviral project, cell-based, set II (AID 2402). In kind it is functional. The settings on record: Chlorocebus sabaeus.
Experiment [8] concerns Vero. Put plainly: Vero E6 cell cytotoxicity, SAR follow-up, cytotoxicity control for West Nile virus antiviral project, synthesized analogs (AID 2244). Particulars: Chlorocebus sabaeus. The experiment is classed as functional.
The target of experiment [9] is Chaperone protein dnaK (Escherichia coli, UniProt C3TRK2). Put plainly: DnaK beta-domain binding affinity, SAR follow-up, orthogonal assay for DnaK modulator project, biophysical, isothermal titration calorimetry, full-length DnaK (AID 1495). Background: Isothermal titration calorimetry measures the heat released or taken up as one component is titrated into another.

From ChEMBL document CHEMBL1201862, “PubChem BioAssay data set” (2004) come the findings set out here.

Active and inactive are the calls of the source. Unless noted, the rule behind the calls is not given here. Where only a bound is given, the exact number is not on record here.

Chain of Chaperone protein dnaK (C3TRK2 whole entry): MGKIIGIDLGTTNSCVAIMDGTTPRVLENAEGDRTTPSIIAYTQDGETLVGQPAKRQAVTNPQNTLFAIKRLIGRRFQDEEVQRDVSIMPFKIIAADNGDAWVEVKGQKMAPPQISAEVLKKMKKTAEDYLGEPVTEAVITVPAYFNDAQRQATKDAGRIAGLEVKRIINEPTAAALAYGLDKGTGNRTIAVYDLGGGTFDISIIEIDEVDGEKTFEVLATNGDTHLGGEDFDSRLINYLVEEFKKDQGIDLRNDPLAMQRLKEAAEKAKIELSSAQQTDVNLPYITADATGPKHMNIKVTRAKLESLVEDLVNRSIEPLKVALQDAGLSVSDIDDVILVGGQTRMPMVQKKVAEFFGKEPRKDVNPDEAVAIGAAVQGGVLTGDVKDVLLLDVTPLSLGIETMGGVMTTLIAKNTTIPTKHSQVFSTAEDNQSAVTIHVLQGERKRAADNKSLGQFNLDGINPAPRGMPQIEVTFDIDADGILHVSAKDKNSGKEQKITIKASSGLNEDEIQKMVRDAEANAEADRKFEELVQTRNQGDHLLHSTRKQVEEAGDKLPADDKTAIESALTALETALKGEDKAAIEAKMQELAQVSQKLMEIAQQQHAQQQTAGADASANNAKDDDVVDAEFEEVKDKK
Chain of Neurotensin receptor type 1 (P30989 whole entry): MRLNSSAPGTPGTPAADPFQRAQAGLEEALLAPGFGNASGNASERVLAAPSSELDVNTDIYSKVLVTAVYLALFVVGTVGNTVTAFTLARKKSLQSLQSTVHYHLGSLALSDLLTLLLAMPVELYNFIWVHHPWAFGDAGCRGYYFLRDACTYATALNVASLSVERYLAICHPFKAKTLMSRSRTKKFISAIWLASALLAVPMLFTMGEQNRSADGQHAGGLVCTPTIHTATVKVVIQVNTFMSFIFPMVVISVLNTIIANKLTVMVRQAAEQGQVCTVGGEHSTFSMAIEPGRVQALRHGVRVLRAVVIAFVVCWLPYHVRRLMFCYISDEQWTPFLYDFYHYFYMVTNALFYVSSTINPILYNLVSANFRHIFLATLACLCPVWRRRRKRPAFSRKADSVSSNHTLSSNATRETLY

The term EC50 denotes the concentration that produces a half-maximal response. In the case of `O=C(/C=C/c1ccccc1F)c1cccc([N+](=O)[O-])c1`, in [1], the EC50 was 15.1 µM (active).

A word on the IC50: it is the concentration that inhibits the measured activity by half. As a reminder, the CC50 is the concentration giving 50% cytotoxicity. In the case of `Cc1cc(C)c(NC(=O)C[N+](C)(C)CC(O)COc2cccc3ccccc23)c(C)c1` (stereo not given), the IC50 in experiment [2] was > 20 µM (inactive). In addition, in experiment [3], the CC50 is 15.6 µM (active).

One may read the AC50 as the concentration giving half of the maximal activity seen. As for `Cc1cccc(NS(=O)(=O)c2ccc(Oc3ccccc3)cc2)n1`, the results for the AC50 in experiment [4], in [5] and in [5] (Vibrio harveyi) were 2.4 µM (active), 4.9 µM (active) and 5.99 µM (active), respectively.

In the case of `O=c1c2cc(Br)ccc2nc2n1CC/C2=C/c1ccccc1`, the figures for the cytotoxic concentration (CC50) in [6], in experiment [7] and in experiment [8] were > 66.6 µM (active), 33.3 µM (active) and > 40 µM (active), respectively.

As a reminder, the Kd is a measure of binding affinity in units of concentration. `Nc1ccc2c(ccn2C(=O)c2cccs2)c1`: in experiment [9], the Kd was 3.4 µM (active).
